Source: US20260000076A1, “ANTIMICROBIAL COMBINATIONS” (Clariant International Ltd, priority 2022, published 2026)

Experiments:
Type in all cases: cell-based
[1] = test system: Escherichia coli (B) DSM 682; assay: Minimum inhibitory concentration (MIC), agar dilution; conditions: DSM682, Caso-Agar, pH 7 (+/−0.2)
Procedure: (§1) The antimicrobial properties of Velsan Flex, CHA and a combination of both against bacteria, yeast and mold were investigated: For testing the inhibition of bacteria, Velsan Flex, CHA or a combination of both was diluted in 1,2-propanediol and added in different concentrations to liquid Caso-Agar at 50° C. and was buffered to pH 7 (+/−0.2). For testing the inhibition of yeast and mold, Velsan Flex, CHA or a combination of both was diluted in 1,2-propanediol and added in different concentrations to liquid Sabouraud-4% Dextrose-Agar at 50° C. and was buffered to pH 5.6 (+/−0.2). Each of the solutions was poured into a petri-dish and inoculated with the same amount of bacteria, yeast or mold respectively. The minimum inhibitory concentration (MIC) is the lowest concentration of the respective composition that inhibits the growth of the respective microorganism where the next lowest dilution fails to inhibit the growth of said microorganism. The experiments were carried out in scientifically fair conditions so that a proper comparison could be made and conclusions drawn.

[2] = test system: Serratia marcescens (B) BAM 491; assay: as above; conditions: Caso-Agar, pH 7 (+/−0.2)
Procedure: as §1

[3] = test system: Aspergillus brasiliensis (M) DSM 1988; assay: as above; conditions: DSM1988, Sabouraud-4% Dextrose-Agar, pH 5.6 (+/−0.2)
Procedure: as §1

[4] = test system: Pseudomonas aeruginosa (B) DSM 1128; assay: as above; conditions: DSM1128, Caso-Agar, pH 7 (+/−0.2)
Procedure: as §1

[5] = test system: Staphylococcus aureus (B) DSM 799; assay: as above; conditions: DSM799, Caso-Agar, pH 7 (+/−0.2)
Procedure: as §1

[6] = test system: Enterobacter aerogenes (B) NCIMB 10102; assay: as above; conditions: Klebsiella aerogenes, NCIMB10102; Caso-Agar, pH 7 (+/−0.2)
Procedure: as §1

[7] = test system: Burkholderia cepacia (B) DSM 7288; assay: as above; conditions: DSM7288, Caso-Agar, pH 7 (+/−0.2)
Procedure: as §1

[8] = test system: Candida albicans (Y) DSM 1386; assay: as above; conditions: DSM1386, Sabouraud-4% Dextrose-Agar, pH 5.6 (+/−0.2)
Procedure: as §1

[9] = test system: Klebsiella pneumoniae (B) DSM 786; assay: as above; conditions: DSM786, Caso-Agar, pH 7 (+/−0.2)
Procedure: as §1

[10] = test system: Candida parapsilosis (Y) DSM 5784; assay: as above; conditions: Lodderomyces parapsilosis, DSM5784; Sabouraud-4% Dextrose-Agar, pH 5.6 (+/−0.2)
Procedure: as §1

[11] = test system: Aspergillus terreus (M) IMI 45543; assay: as above; conditions: Sabouraud-4% Dextrose-Agar, pH 5.6 (+/−0.2)
Procedure: as §1

Staphylococcus aureus = assay: Challenge test (European Pharmacopoeia 10th Edition, Chapter 5.1.3) in leave-on O/W-cream gel; design: key: An A-criteria is related to an excellent protection of a formulation; B-criteria is needed to show sufficient protection but additional risk eliminating measures related to packaging and raw material quality need to be applied; With an F-criteria for any of the organism tested the whole challenge test is failed and the preservation/protection of the formulation is not sufficient; conditions: for Challenge test result S.a.: Example 2A, Velsan Flex 1.35%, CHA 0.15%; for Challenge test result Staphylococcus aureus: Example 2B, CHA 0.1%, Velsan SC 0.9%, Velsan CGE 0.9%
Excerpt: (§2) Following examples show challenge test results that were done according to EUROPEAN PHARMACOPOEIA 10TH EDITION. Chapter 5.1.3. As representative microorganisms the following test germs were used: Pseudomonas aeruginosa (gram-negative organism, short “P.a.”), Staphylococcus aureus (gram-positive organism, short “S.a.”), Escherichia coli (gram negative organism, short “E.c.”), Candida albicans (yeast, short “C.a.”) and Aspergillus brasiliensis (mold, short “A.b.”).
(§3) The A criteria express the recommended efficacy to be achieved. In justified cases where the A criteria cannot be attained, for example for reasons of an increased risk of adverse reactions, the B criteria must be satisfied. An A-criteria is related to an excellent protection of a formulation, B-criteria is needed to show sufficient protection but additional risk eliminating measures related to packaging and raw material quality need to be applied. With an F-criteria for any of the organism tested the whole challenge test is failed and the preservation/protection of the formulation is not sufficient.
(§4) As a reference an unpreserved sample of the respective formulation was tested as well.
(§5) As a test system a difficult to preserve formulation was used: […]
(§6) As a Test System the Following Formulation was Used: […]

Escherichia coli = assay: as above; design: key: An A-criteria is related to an excellent protection of a formulation; B-criteria is needed to show sufficient protection but additional risk eliminating measures related to packaging and raw material quality need to be applied; With an F-criteria for any of the organism tested the whole challenge test is failed and the preservation/protection of the formulation is not sufficient; conditions: for Challenge test result E.c.: Example 2A, Velsan Flex 1.35%, CHA 0.15%; for Challenge test result Escherichia coli: Example 2B, CHA 0.1%, Velsan SC 0.9%, Velsan CGE 0.9%
Excerpt: as §2, §3, §4, §5, §6

Candida albicans = assay: as above; design: key: An A-criteria is related to an excellent protection of a formulation; B-criteria is needed to show sufficient protection but additional risk eliminating measures related to packaging and raw material quality need to be applied; With an F-criteria for any of the organism tested the whole challenge test is failed and the preservation/protection of the formulation is not sufficient; conditions: for Challenge test result C.a.: Example 2A, Velsan Flex 1.35%, CHA 0.15%; for Challenge test result Candida albicans: Example 2B, CHA 0.1%, Velsan SC 0.9%, Velsan CGE 0.9%
Excerpt: as §2, §3, §4, §5, §6

Pseudomonas aeruginosa = assay: as above; design: key: An A-criteria is related to an excellent protection of a formulation; B-criteria is needed to show sufficient protection but additional risk eliminating measures related to packaging and raw material quality need to be applied; With an F-criteria for any of the organism tested the whole challenge test is failed and the preservation/protection of the formulation is not sufficient; conditions: for Challenge test result P.a.: Example 2A, Velsan Flex 1.35%, CHA 0.15%; for Challenge test result Pseudomonas aeruginosa: Example 2B, CHA 0.1%, Velsan SC 0.9%, Velsan CGE 0.9%
Excerpt: as §2, §3, §4, §5, §6

Aspergillus brasiliensis = assay: as above; design: key: An A-criteria is related to an excellent protection of a formulation; B-criteria is needed to show sufficient protection but additional risk eliminating measures related to packaging and raw material quality need to be applied; With an F-criteria for any of the organism tested the whole challenge test is failed and the preservation/protection of the formulation is not sufficient; conditions: for Challenge test result A.b.: Example 2A, Velsan Flex 1.35%, CHA 0.15%; for Challenge test result Aspergillus brasiliensis: Example 2B, CHA 0.1%, Velsan SC 0.9%, Velsan CGE 0.9%
Excerpt: as §2, §3, §4, §5, §6

[12] = test system: Pseudomonas aeruginosa, Staphylococcus aureus, Escherichia coli, Candida albicans and Aspergillus brasiliensis; assay: Challenge test, overall result over all test germs; design: key: An A-criteria is related to an excellent protection of a formulation; B-criteria is needed to show sufficient protection but additional risk eliminating measures related to packaging and raw material quality need to be applied; With an F-criteria for any of the organism tested the whole challenge test is failed and the preservation/protection of the formulation is not sufficient; conditions: for Challenge test Overall result: Example 2B, CHA 0.1%, Velsan SC 0.9%, Velsan CGE 0.9%
Excerpt: as §2, §3, §4, §5, §6

Row | Compound | Challenge test result Staphylococcus aureus (Staphylococcus aureus; pH 5) | Challenge test result Staphylococcus aureus (Staphylococcus aureus; pH 7) | Challenge test result Escherichia coli (Escherichia coli; pH 5) | Challenge test result Escherichia coli (Escherichia coli; pH 7) | Challenge test result Candida albicans (Candida albicans; pH 5) | Challenge test result Candida albicans (Candida albicans; pH 7) | Challenge test result Pseudomonas aeruginosa (Pseudomonas aeruginosa; pH 5) | Challenge test result Pseudomonas aeruginosa (Pseudomonas aeruginosa; pH 7) | Challenge test result Aspergillus brasiliensis (Aspergillus brasiliensis; pH 5) | Challenge test result Aspergillus brasiliensis (Aspergillus brasiliensis; pH 7) | Challenge test Overall result ([12]; pH 5) | Challenge test Overall result ([12]; pH 7) | other results
1 | CCCCCCCC(=O)NO [10% CHA solution, Caprylhydroxamic acid] |  |  |  |  |  |  |  |  |  |  |  |  | MIC [1]: 5000 µg/mL; MIC [2]: 4000 µg/mL; MIC [3]: 3000 µg/mL; MIC [4]: 8000 µg/mL; MIC [5]: 8000 µg/mL; MIC [6]: 6000 µg/mL; MIC [7]: 3000 µg/mL; MIC [8]: 2000 µg/mL; MIC [9]: 3000 µg/mL; MIC [10]: 2000 µg/mL; MIC [11]: 2000 µg/mL
2 | CCCCCCCC(=O)NO [CHA, Caprylhydroxamic acid] | A | F | B | B | A | A | A | A | B | A | B | F | Challenge test result S.a. (Staphylococcus aureus; pH 5): A; Challenge test result S.a. (Staphylococcus aureus; pH 7): B; Challenge test result E.c. (Escherichia coli; pH 5): B; Challenge test result E.c. (Escherichia coli; pH 7): B; Challenge test result C.a. (Candida albicans; pH 5): A; Challenge test result C.a. (Candida albicans; pH 7): A; Challenge test result P.a. (Pseudomonas aeruginosa; pH 5): A; Challenge test result P.a. (Pseudomonas aeruginosa; pH 7): A; Challenge test result A.b. (Aspergillus brasiliensis; pH 5): A; Challenge test result A.b. (Aspergillus brasiliensis; pH 7): A; Challenge test, criteria obtained over all test organisms ([12]; Example 2A, pH 5, Velsan Flex 1.35%, CHA 0.15%): B
3 | Sorbitan caprylate [Velsan SC] | A | A | A | B | B | B | F | F | F | F | F | F | 
